One may read the Ki as the equilibrium dissociation constant of an inhibitor or competing ligand from its target.

T1 sequence (P20309 whole entry): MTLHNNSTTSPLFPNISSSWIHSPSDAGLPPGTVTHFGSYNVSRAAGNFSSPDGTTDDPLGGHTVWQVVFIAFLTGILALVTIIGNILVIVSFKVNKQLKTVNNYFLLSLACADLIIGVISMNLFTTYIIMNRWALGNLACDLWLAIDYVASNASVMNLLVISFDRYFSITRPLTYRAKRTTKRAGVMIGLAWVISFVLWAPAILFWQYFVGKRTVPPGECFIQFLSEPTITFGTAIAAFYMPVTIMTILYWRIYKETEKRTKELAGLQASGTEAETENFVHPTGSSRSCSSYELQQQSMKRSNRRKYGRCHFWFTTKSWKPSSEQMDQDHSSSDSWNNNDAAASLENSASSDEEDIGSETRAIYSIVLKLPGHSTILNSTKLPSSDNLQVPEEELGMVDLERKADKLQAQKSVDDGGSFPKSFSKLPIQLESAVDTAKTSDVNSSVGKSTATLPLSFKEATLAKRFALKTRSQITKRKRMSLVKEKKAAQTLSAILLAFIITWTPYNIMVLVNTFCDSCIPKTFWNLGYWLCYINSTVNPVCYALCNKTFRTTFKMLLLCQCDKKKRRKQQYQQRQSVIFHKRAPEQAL

The test addresses T1, Recombinant human M3 receptor (Homo sapiens, UniProt P20309).
T1 construct: expressed in transfected cells; host or cells: CHO-K1 cells (membranes)
Description: biochemical. The class given is binding. To be noted: SPA format; read-out: M3 Ki (SPA format).
With `OC(c1ccccc1)(c1ccccc1)c1noc(C[N+]23CCC(CC2)[C@H](COc2ccccc2)C3)n1` [Example 93, (S)-1-[3-(Hydroxy-diphenyl-methyl)-[1,2,4]oxadiazol-5-ylmethyl]-3-phenoxymethyl-1-azonia-bicyclo[2.2.2]octane; chloride], the inhibition constant Ki was less than 5 nM.

Take `OC(c1ccccc1)(c1ccccc1)c1noc(C[N+]23CCC(CC2)[C@@H](Oc2cccc(F)c2)C3)n1` [Example 94, (R)-3-(3-Fluoro-phenoxy)-1-[3-(hydroxy-diphenyl-methyl)-[1,2,4]oxadiazol-5-ylmethyl]-1-azonia-bicyclo[2.2.2]octane; chloride]: the Ki is less than 5 nM.

Regarding `O[C@](c1ccccc1)(c1ncc(C[N+]23CCC(CC2)[C@@H](OC2CCCCO2)C3)o1)C1CCCCC1` (stereo partly drawn) [Example 96, (R)-1-[2-((R)—Cyclohexyl-hydroxy-phenyl-methyl)-oxazol-5-ylmethyl]-3-(tetrahydro-pyran-2-yloxy)-1-azonia-bicyclo[2.2.2]octane; bromide], the Ki is less than 5 nM. With `OC(c1ccccc1)(c1ccccc1)c1ncc(C[N+]23CCC(CC2)[C@@H](Sc2ccc(F)cc2)C3)o1` [Example 97, (R)-3-(4-Fluoro-phenylsulfanyl)-1-[2-(hydroxy-diphenyl-methyl)-oxazol-5-ylmethyl]-1-azonia-bicyclo[2.2.2]octane; bromide] the figure was less than 5 nM; with `OC(c1ccccc1)(c1ccccc1)c1ncc(C[N+]23CCC(CC2)[C@@H](Sc2cccc(F)c2)C3)o1` [Example 98, (R)-3-(3-Fluoro-phenylsulfanyl)-1-[2-(hydroxy-diphenyl-methyl)-oxazol-5-ylmethyl]-1-azonia-bicyclo[2.2.2]octane; bromide], less than 5 nM; with `OC(c1ccccc1)(c1ccccc1)c1ncc(C[N+]23CCC(CC2)[C@@H](Sc2ccc(F)c(F)c2)C3)o1` [Example 99, (R)-3-(3,4-Difluoro-phenylsulfanyl)-1-[2-(hydroxy-diphenyl-methyl)-oxazol-5-ylmethyl]-1-azonia-bicyclo[2.2.2]octane; bromide], less than 5 nM. With `O[C@](c1ccccc1)(c1ncc(C[N+]23CCC(CC2)[C@@H](CSc2ccccc2)C3)o1)C1CCCCC1` [Example 100, (R)-1-[2-((R)—Cyclohexyl-hydroxy-phenyl-methyl)-oxazol-5-ylmethyl]-3-phenylsulfanylmethyl-1-azonia-bicyclo[2.2.2]octane; bromide] the figure was less than 5 nM; with `OC(c1ccccc1)(c1ccccc1)c1ncc(C[N+]23CCC(CC2)[C@@H](Oc2cccs2)C3)o1` [Example 102, (R)-1-[2-(Hydroxy-diphenyl-methyl)-oxazol-5-ylmethyl]-3-(thiophen-2-yloxy)-1-azonia-bicyclo[2.2.2]octane; bromide], 5 to 20 nM. With `OC(c1ccccc1)(c1ccccc1)c1noc(C[N+]23CCC(CC2)[C@@H](Oc2ccccc2)C3)n1` [Example 103, (R)-1-[3-(Hydroxy-diphenyl-methyl)-[1,2,4]oxadiazol-5-ylmethyl]-3-phenoxy-1-azonia-bicyclo[2.2.2]octane; chloride] the figure was less than 5 nM; with `Cc1ccc(O[C@H]2C[N+]3(Cc4nc(C(O)(c5ccccc5)c5ccccc5)no4)CCC2CC3)cc1Cl` [Example 104, (R)-3-(3-Chloro-4-methyl-phenoxy)-1-[3-(hydroxy-diphenyl-methyl)-[1,2,4]oxadiazol-5-ylmethyl]-1-azonia-bicyclo[2.2.2]octane; chloride], less than 5 nM. With `O[C@](c1ccccc1)(c1ncc(C[N+]23CCC(CC2)[C@@H](Sc2cccc(F)c2)C3)o1)C1CCCCC1` [Example 105, (R)-1-[2-((R)—Cyclohexyl-hydroxy-phenyl-methyl)-oxazol-5-ylmethyl]-3-(3-fluoro-phenylsulfanyl)-1-azonia-bicyclo[2.2.2]octane; bromide], the Ki is less than 5 nM.

As to `O[C@](c1ccccc1)(c1ncc(C[N+]23CCC(CC2)[C@@H](CSc2ccc(F)cc2)C3)o1)C1CCCCC1` [Example 106, (R)-1-[2-((R)—Cyclohexyl-hydroxy-phenyl-methyl)-oxazol-5-ylmethyl]-3-(4-fluoro-phenylsulfanylmethyl)-1-azonia-bicyclo[2.2.2]octane; bromide], the Ki is less than 5 nM. With `O[C@](c1ccccc1)(c1ncc(C[N+]23CCC(CC2)[C@@H](CSc2ccc(Cl)cc2)C3)o1)C1CCCCC1` [Example 107, (R)-3-(4-Chloro-phenylsulfanylmethyl)-1-[2-(R)cyclohexyl-hydroxy-phenyl-methyl)-oxazol-5-ylmethyl]-1-azonia-bicyclo[2.2.2]octane; bromide] the figure was less than 5 nM; with `O[C@](c1ccccc1)(c1ncc(C[N+]23CCC(CC2)[C@@H](CSc2cccc(F)c2)C3)o1)C1CCCCC1` [Example 108, (R)-1-[2-((R)—Cyclohexyl-hydroxy-phenyl-methyl)-oxazol-5-ylmethyl]-3-(3-fluoro-phenylsulfanylmethyl)-1-azonia-bicyclo[2.2.2]octane; bromide], less than 5 nM; with `O[C@](c1ccccc1)(c1ncc(C[N+]23CCC(CC2)[C@H](CSc2ccc(F)cc2)C3)o1)C1CCCCC1` [Example 109, (S)-1-[2-((R)—Cyclohexyl-hydroxy-phenyl-methyl)-oxazol-5-ylmethyl]-3-(4-fluoro-phenylsulfanylmethyl)-1-azonia-bicyclo[2.2.2]octane; bromide], less than 5 nM. For the compound `O[C@](c1ccccc1)(c1ncc(C[N+]23CCC(CC2)[C@H](CSc2ccc(Cl)cc2)C3)o1)C1CCCCC1` [Example 110, (S)-3-(4-Chloro-phenylsulfanylmethyl)-1-[2-((R)cyclohexyl-hydroxy-phenyl-methyl)-oxazol-5-ylmethyl]-1-azonia-bicyclo[2.2.2]octane; bromide], the Ki is less than 5 nM.

As to `O[C@](c1ccccc1)(c1ncc(C[N+]23CCC(CC2)[C@H](CSc2cccc(F)c2)C3)o1)C1CCCCC1` [Example 111, (S)-1-[2-((R)—Cyclohexyl-hydroxy-phenyl-methyl)-oxazol-5-ylmethyl]-3-(3-fluoro-phenylsulfanylmethyl)-1-azonia-bicyclo[2.2.2]octane; bromide], the inhibition constant Ki is less than 5 nM. On to `C=C(C)CO[C@H]1C[N+]2(Cc3cnc([C@](O)(c4ccccc4)C4CCCCC4)o3)CCC1CC2` [Example 112, (R)-1-[2-((R)—Cyclohexyl-hydroxy-phenyl-methyl)-oxazol-5-ylmethyl]-3-(2-methyl-allyloxy)-1-azonia-bicyclo[2.2.2]octane; bromide], for which the Ki was less than 5 nM. With `C/C=C/CO[C@H]1C[N+]2(Cc3cnc([C@](O)(c4ccccc4)C4CCCCC4)o3)CCC1CC2` [Example 113, (R)-3-[((E)-But-2-enyl)oxy]-1-[2-((R)-cyclohexyl-hydroxy-phenyl-methyl)-oxazol-5-ylmethyl]-1-azonia-bicyclo[2.2.2]octane; bromide] the figure was less than 5 nM.

As to `OC(c1ccccc1)(c1ccccc1)c1ncc(C[N+]23CCC(CC2)[C@@H](Oc2ccsc2)C3)o1` [Example 114, (R)-1-[2-(Hydroxy-diphenyl-methyl)-oxazol-5-ylmethyl]-3-(thiophen-3-yloxy)-1-azonia-bicyclo[2.2.2]octane; bromide], the Ki was in the range of 5 to 20 nM.

(Values after US20100056565A1, “Heterocyclic Derivatives as M3 Muscarinic Receptors” (priority 2007, published 2010).)
